Measurements as given in patent US9078446B2, “Use of N-(tetrazol-4-yl)- or N-(triazol-3-yl)arylcarboxamides or their salts for controlling unwanted plants in areas of transgenic crop plants being tolerant to HPPD inhibitor herbicides” (BAYER INTELLECTUAL PROPERTY GMBH, priority 2011, dated 2015).

Experiments:
Format in all cases: in vivo
[1] = system: transgenic tobacco plants expressing tolerant HPPD enzymes; assay: Tolerance of tobacco plants expressing tolerant HPPD enzymes (all transgenes); conditions: for tolerance of the transgenic tobacco plants (symptoms due to application of the herbicide): T1 plants sprayed, evaluated one week after application; for sensitivity of transgenic tobacco plants compared to wild type (wt) plants: all tested independent lines, agronomically relevant dose
Source text: (§1) Genes coding for the selected HPPD were obtained from a member of the group of organisms consisting of Avena sativa, Pseudomonas fluorescens mutant G336W, Blepharisma japonicum and Kordia algicida and cloned into the binary vector pBin19 allowing the integration of DNA into the tobacco genome, under the control of the CaMV35S promoter. For the cloning procedures, see A2 above for Avena sativa, see B2 above for Pseudomonas fluorescens, mutant G336W, see PCT/EP2010/070567 (published as WO 2011/076882, Example 5; for Blepharisma japonicum (FMP37) and see PCT/EP2010/070575, Example 5 for Kordia algicida (FMP27). Between the sequence corresponding to the promoter and the sequence coding for the HPPD a DNA sequence coding for a transit peptide to the chloroplast was inserted, in order to add at the N-terminal extremity of the protein a target signal to allow the localization of the HPPD protein into the plant chloroplast.
(§2) Seeds harvested from TO transformants will be put on standard soil for germination. Three weeks later plantlets (T1) will be transferred to single pots and grown under standard cultivation conditions (PCT/EP2010/070575, published as WO 2011/076889). Two weeks later, plants were sprayed with several N-(tetrazol-4-yl)- or N-(triazol-3-yl)arylcarboxamides as defined above.
(§3) Tables F1 to F5: Evaluation of the Symptoms Observed Due to the Application of the Herbicides on Transgenic Tobacco Plants, Expressing the Mutant Pseudomonas fluorescens HPPD G336W, the Avena HPPD (AvHPPD), the HPPD from Kordia algicida FMP27 or the HPPD from Blepharisma japonicum (FMP37), Compared to Non-Tranformed Tobacco Plants (“Wt”).
(§4) The herbicides (with “g Al/ha” meaning “g active ingredient/ha”) were applied on 8 to 10 plants originated from 1 to 3 independent transgenic events per transgene.
(§5) The symptoms were evaluated and classified as following: • 3=Very strong damage • 2=Strong damage • 1=Light and transient damage • 0=No damage

[2] = system: transgenic tobacco plants expressing HPPD from Blepharisma japonicum (FMP37); assay: Symptoms due to herbicide application on transgenic tobacco plants (damage classes 0-3); conditions: one week after application
Source text: as §1, §2, §3, §4, §5

[3] = system: transgenic tobacco plants expressing mutant Pseudomonas fluorescens HPPD G336W (PfHPPD-G336W); assay: as above; conditions: one week after application, PfHPPD-G336W line 646
Source text: as §1, §2, §3, §4, §5

[4] = system: transgenic tobacco plants expressing Avena HPPD (AvHPPD); assay: as above; conditions: one week after application, AvHPPD line 659
Source text: as §1, §2, §3, §4, §5

[5] = system: transgenic tobacco plants expressing HPPD from Kordia algicida FMP27; assay: as above; conditions: one week after application
Source text: as §1, §2, §3, §4, §5

[6] = system: soybean plants expressing Pseudomonas fluorescens G336W mutant, FMP 27 and FMP 37; assay: Tolerance to HPPD inhibitors of soybean plants expressing tolerant HPPD enzymes; conditions: T1 soybean plants; one week after application
Source text: Genes coding for the selected HPPD were obtained from a member of the group of organisms consisting of Blepharisma japonicum and Kordia algicida and cloned into an appropriate binary vector allowing the integration of DNA into the soybean genome, under the control of the CaMV35S promoter. For the respective cloning procedures, see WO2011076882 (PCT/EP2010/070567), Example 9; for Blepharisma japonicum (FMP37) and WO2011076889 (PCT/EP2010/070575), Example 9 for Kordia algicida (FMP27).
Between the sequence corresponding to the promoter and the sequence coding for the HPPD a DNA sequence coding for a transit peptide to the chloroplast was inserted, in order to add at the N-terminal extremity of the protein a target signal to allow the localization of the HPPD protein into the plant chloroplast. By using the vectors “pFCO112” (Blepharisma japonicum, WO2011076882), pFCO116 (Korida algicida, WO2011076889), and pFCO117” (see Example B2, above), soybean transformation was achieved as described in Example 10 of WO2011076882 (PCT/EP2010/070567) for Blepharisma japonicum (FMP37) and WO2011076889 (PCT/EP2010/070575) for Kordia algicida (FMP27). Seeds from TO events showing tolerance to tembotrione were harvested.
T1 Soybean seeds were transferred to single pots and grown under standard cultivation conditions, see WO2011076882.
Two weeks later, plants will be sprayed with several N-(tetrazol-4-yl)- or N-(triazol-3-yl)arylcarboxamides as defined above.

[7] = system: non-transformed tobacco plants (Wt); assay: Symptoms due to herbicide application on tobacco plants (damage classes 0-3); conditions: one week after application
Source text: as §2, §3, §4, §5

[8] = system: cotton plants expressing FMP 27 and FMP 37; assay: Tolerance to HPPD inhibitors of cotton plants expressing tolerant HPPD enzymes; conditions: T1 cotton plants; one week after application
Source text: Genes coding for the selected HPPD were obtained from a member of the group of organisms consisting of Blepharisma japonicum and Kordia algicida and cloned into an appropriate binary vector allowing the integration of DNA into the cotton genome, under the control of the CaMV35S promoter. For the respective cloning procedures, see WO2011076882 (PCT/EP2010/070567), Example 11; for Blepharisma japonicum (FMP37) and WO2011076889 (PCT/EP2010/070575), Example 11 for Kordia algicida (FMP27).
Between the sequence corresponding to the promoter and the sequence coding for the HPPD a DNA sequence coding for a transit peptide to the chloroplast was inserted, in order to add at the N-terminal extremity of the protein a target signal to allow the localization of the HPPD protein into the plant chloroplast. Cotton transformation was achieved as described in Example 12 of WO2011076882 (PCT/EP2010/070567) for Blepharisma japonicum (FMP37) and WO2011076889 (PCT/EP2010/070575) for Kordia algicida (FMP27). Seeds from T0 events showing tolerance to tembotrione were harvested.
T1 Cotton seeds were transferred to single pots and grown under standard cultivation conditions, see WO2011076882 (PCT/EP2010/070567) for Blepharisma japonicum (FMP37) and WO2011076889 (PCT/EP2010/070575) for Kordia algicida (FMP27).
At least 4 weeks later, plants will be sprayed with several N-(tetrazol-4-yl)- or N-(triazol-3-yl)arylcarboxamides as defined above.

[9] = 50 g AI/ha, WP20 + oilseed rape methyl ester + ammonium sulfate

What does the source list for `COCc1c(S(C)(=O)=O)ccc(C(=O)Nc2nnnn2C)c1Cl` [Compound 4-253]?
tolerance of the transgenic tobacco plants (symptoms due to application of the herbicide) [1]: good tolerance; sensitivity of transgenic tobacco plants compared to wild type (wt) plants [1]: less sensitive; number of plants with Damage 0 (No damage) ([2]; 50 g AI/ha, FMP37 line 749): 7; number of plants with Damage 1 (Light and transient damage) ([2]; 50 g AI/ha, FMP37 line 749): 2; number of plants with Damage 2 (Strong damage) ([2]; 50 g AI/ha, FMP37 line 749): 0; number of plants with Damage 3 (Very strong damage) ([2]; 50 g AI/ha, FMP37 line 749): 1; number of plants with Damage 0 (No damage) ([2]; 50 g AI/ha, FMP37 line 754): 6; number of plants with Damage 1 (Light and transient damage) ([2]; 50 g AI/ha, FMP37 line 754): 2; number of plants with Damage 2 (Strong damage) ([2]; 50 g AI/ha, FMP37 line 754): 1; number of plants with Damage 3 (Very strong damage) ([2]; 50 g AI/ha, FMP37 line 754): 1; number of plants with Damage 0 (No damage) ([2]; 50 g AI/ha, FMP37 line 795): 3; number of plants with Damage 1 (Light and transient damage) ([2]; 50 g AI/ha, FMP37 line 795): 4; number of plants with Damage 2 (Strong damage) ([2]; 50 g AI/ha, FMP37 line 795): 0; number of plants with Damage 3 (Very strong damage) ([2]; 50 g AI/ha, FMP37 line 795): 3; number of plants with Damage 0 (No damage) ([3]; 50 g AI/ha): 9; number of plants with Damage 1 (Light and transient damage) ([3]; 50 g AI/ha): 0; number of plants with Damage 2 (Strong damage) ([3]; 50 g AI/ha): 0; number of plants with Damage 3 (Very strong damage) ([3]; 50 g AI/ha): 1; number of plants with Damage 0 (No damage) ([4]; 50 g AI/ha): 3; number of plants with Damage 1 (Light and transient damage) ([4]; 50 g AI/ha): 0; number of plants with Damage 2 (Strong damage) ([4]; 50 g AI/ha): 0; number of plants with Damage 3 (Very strong damage) ([4]; 50 g AI/ha): 7; number of plants with Damage 0 (No damage) ([5]; 50 g AI/ha, FMP27 line 733): 4; number of plants with Damage 1 (Light and transient damage) ([5]; 50 g AI/ha, FMP27 line 733): 4; number of plants with Damage 2 (Strong damage) ([5]; 50 g AI/ha, FMP27 line 733): 2; number of plants with Damage 3 (Very strong damage) ([5]; 50 g AI/ha, FMP27 line 733): 0; number of plants with Damage 0 (No damage) ([5]; 50 g AI/ha, FMP27 line 734): 6; number of plants with Damage 1 (Light and transient damage) ([5]; 50 g AI/ha, FMP27 line 734): 1; number of plants with Damage 2 (Strong damage) ([5]; 50 g AI/ha, FMP27 line 734): 2; number of plants with Damage 3 (Very strong damage) ([5]; 50 g AI/ha, FMP27 line 734): 1; number of plants with Damage 0 (No damage) ([5]; 50 g AI/ha, FMP27 line 735): 2; number of plants with Damage 1 (Light and transient damage) ([5]; 50 g AI/ha, FMP27 line 735): 5; number of plants with Damage 2 (Strong damage) ([5]; 50 g AI/ha, FMP27 line 735): 0; number of plants with Damage 3 (Very strong damage) ([5]; 50 g AI/ha, FMP27 line 735): 3; tolerance of transgenic plants compared to the wild-type soybean plants [6]: superior tolerance; number of plants with Damage 0 (No damage) [7, 9]: 0; number of plants with Damage 1 (Light and transient damage) [7, 9]: 0; number of plants with Damage 2 (Strong damage) [7, 9]: 0; number of plants with Damage 3 (Very strong damage) [7, 9]: 10; tolerance of transgenic plants compared to the wild-type cotton plants [8]: superior tolerance

What does the source list for `Cn1nnnc1NC(=O)c1ccc(C(F)(F)F)cc1S(C)(=O)=O` [Compound 4-25]?
tolerance of the transgenic tobacco plants (symptoms due to application of the herbicide) [1]: good tolerance; sensitivity of transgenic tobacco plants compared to wild type (wt) plants [1]: less sensitive; number of plants with Damage 0 (No damage) ([2]; FMP37 line 749, 50 g Al/ha): 8; number of plants with Damage 1 (Light and transient damage) ([2]; FMP37 line 749, 50 g Al/ha): 0; number of plants with Damage 2 (Strong damage) ([2]; FMP37 line 749, 50 g Al/ha): 0; number of plants with Damage 3 (Very strong damage) ([2]; FMP37 line 749, 50 g Al/ha): 2; number of plants with Damage 0 (No damage) ([2]; FMP37 line 754, 50 g Al/ha): 3; number of plants with Damage 1 (Light and transient damage) ([2]; FMP37 line 754, 50 g Al/ha): 5; number of plants with Damage 2 (Strong damage) ([2]; FMP37 line 754, 50 g Al/ha): 1; number of plants with Damage 3 (Very strong damage) ([2]; FMP37 line 754, 50 g Al/ha): 1; number of plants with Damage 0 (No damage) ([2]; FMP37 line 795, 50 g Al/ha): 7; number of plants with Damage 1 (Light and transient damage) ([2]; FMP37 line 795, 50 g Al/ha): 0; number of plants with Damage 2 (Strong damage) ([2]; FMP37 line 795, 50 g Al/ha): 1; number of plants with Damage 3 (Very strong damage) ([2]; FMP37 line 795, 50 g Al/ha): 2; number of plants with Damage 0 (No damage) ([3]; 50 g Al/ha): 10; number of plants with Damage 1 (Light and transient damage) ([3]; 50 g Al/ha): 0; number of plants with Damage 2 (Strong damage) ([3]; 50 g Al/ha): 0; number of plants with Damage 3 (Very strong damage) ([3]; 50 g Al/ha): 0; number of plants with Damage 0 (No damage) ([4]; 50 g Al/ha): 6; number of plants with Damage 1 (Light and transient damage) ([4]; 50 g Al/ha): 1; number of plants with Damage 2 (Strong damage) ([4]; 50 g Al/ha): 0; number of plants with Damage 3 (Very strong damage) ([4]; 50 g Al/ha): 3; number of plants with Damage 0 (No damage) ([5]; FMP27 line 733, 50 g Al/ha): 9; number of plants with Damage 1 (Light and transient damage) ([5]; FMP27 line 733, 50 g Al/ha): 1; number of plants with Damage 2 (Strong damage) ([5]; FMP27 line 733, 50 g Al/ha): 0; number of plants with Damage 3 (Very strong damage) ([5]; FMP27 line 733, 50 g Al/ha): 0; number of plants with Damage 0 (No damage) ([5]; FMP27 line 734, 50 g Al/ha): 6; number of plants with Damage 1 (Light and transient damage) ([5]; FMP27 line 734, 50 g Al/ha): 3; number of plants with Damage 2 (Strong damage) ([5]; FMP27 line 734, 50 g Al/ha): 0; number of plants with Damage 3 (Very strong damage) ([5]; FMP27 line 734, 50 g Al/ha): 1; number of plants with Damage 0 (No damage) ([5]; FMP27 line 735, 50 g Al/ha): 5; number of plants with Damage 1 (Light and transient damage) ([5]; FMP27 line 735, 50 g Al/ha): 3; number of plants with Damage 2 (Strong damage) ([5]; FMP27 line 735, 50 g Al/ha): 0; number of plants with Damage 3 (Very strong damage) ([5]; FMP27 line 735, 50 g Al/ha): 0; tolerance of transgenic plants compared to the wild-type soybean plants [6]: superior tolerance; number of plants with Damage 0 (No damage) ([7]; 50 g Al/ha): 0; number of plants with Damage 1 (Light and transient damage) ([7]; 50 g Al/ha): 0; number of plants with Damage 2 (Strong damage) ([7]; 50 g Al/ha): 0; number of plants with Damage 3 (Very strong damage) ([7]; 50 g Al/ha): 10; tolerance of transgenic plants compared to the wild-type cotton plants [8]: superior tolerance
